Assay results published in US20150258043A1, “USE OF SPHINGOID LONG CHAIN BASES AND THEIR ANALOGS IN TREATING AND PREVENTING BACTERIAL INFECTIONS” (YEDA RESEARCH AND DEVELOPMENT CO. LTD., priority 2012, published 2015).
“Also recorded” adds a separate entry of the source. Like-named read-outs stand apart in the source and are kept apart here.

How the values were obtained:
P. aeruginosa = assay: Sytox green staining (membrane permeabilization of bacteria); assay type: cell-based, Pseudomonas aeruginosa; conditions: 50 μM in 1% DMSO, 30 min
Experimental: FIGS. 4A-D. The ceramide/sphingosine ratio regulates P. aeruginosa growth. (A) Representative image of two independent experiments (left hand panel) after addition of Sytox green (1 μM) for 30 min in the absence or presence of 50 μM sphingosine or 50 μM C16-ceramide (C16-Cer) in 1% DMSO. Fluorescent and thus permeabilised bacteria were quantified (right hand panel). (B-D) The inhibitory effect of sphingosine on the growth of P. aeruginosa strain 762 is decreased in vitro and in vivo by C16-ceramide. (B) Bacteria were incubated with 10 μM sphingosine, and increasing concentrations of C16-ceramide, and growth was determined by counting colony forming unit (CFU) after 24 hrs growth on LB agar plates. Number of bacteria in the lung (C) and sickness score (D) of CF mice or WT mice inhaled with either sphingosine or a combination of sphingosine and C16-ceramide 1 h before (b.i.) with 10^8 P. aeruginosa CFU strain 762. Data are means±s.d., n=3 in (A,B) and n=4 in (C,D).
Bacteria at early logarithmic phase were incubated in the presence or absence of sphingosine or C16-ceramide (C16-cer) (50 μM in 1% DMSO) for 30 minutes at 37° C. […] Sample were examined under fluorescence microscope, and bacteria were counted both in bright field and under green fluorescent filter in two independent experiments.

[1] = tested on: P. aeruginosa strains 762, PA14 and ATCC 27853; assay: Pulmonary P. aeruginosa infection of CF and CerS2 null mice, inhalation treatment (bacteria in lung, sickness score); assay type: in vivo, mouse; conditions: CF and CerS2 null mice; inhalation (125 μM) 1 h before or 1 h after intranasal infection with 1×10^8 CFU
Experimental: (A,B) The number of bacteria in the lungs and the overall sickness score (C,D) of WT, CerS2 null and CF mice 3-4 h after intranasal infection with 1×10^8 CFU of P. aeruginosa strains 762 (A,C) and CF mice with strains PA14 and ATCC 27853. Mice were inhaled with 0.9% NaCl or acid ceramidase 1 h prior (b.i.) to infection, or with sphingosine or FTY720 1 h before (b.i.) or 1 h after (a.i.) infection. Sickness score 4, severely affected (unresponsive animal); score 3 affected, (heavy breathing, low body temperature, ruffled fur) score 2, moderately affected (ruffled fur, heavy breathing); score 1, slightly affected (ruffled fur); score 0, unaffected (healthy appearance). Data are means±s.d., n=4.
Pulmonary infection of CF or CerS2 mice was achieved by intranasal application of P. aeruginosa strains 762, ATCC 27853 or PA14. Mice inhaled acid ceramidase, sphingosine, FTY720 or a combination of sphingosine and ceramide 1 hr before or after pulmonary infection. The number of bacteria in the lung was determined by culturing aliquots of lysed lungs on agar plates. Clinical symptoms of the infection were scored.
Inhalation was performed with a PARI Boy SX nebulizer (PARI GmbH, Starnberg, Germany). This nebulizer generates a fine aerosol mist by pumping the fluid with an air jet. The mice inhaled the aerosol via a mask that is part of an oral inhalation device for children (LL-Nebulizer); the mask was clipped at the sides to cover only the mouse's nose and the surrounding part of the face. […]
P. aeruginosa were grown for 14 to 14.5 h on fresh tryptic soy agar (TSA) plates (Becton Dickinson Biosciences, Germany). […] The bacterial OD was determined, and the bacteria were diluted in prewarmed H/S to a concentration of 1×10^8 CFU per 20 μL. […]
Lungs were removed, homogenised and lysed for 10 min in 5 mg/ml saponin to release intracellular bacteria. […] Bacterial counts (CFU) were counted after 18 h.

[2] = superscript reference marks; cited from earlier work
P. aeruginosa strain 762 = assay: Effect of LCBs on P. aeruginosa growth in vitro (colony counts); assay type: cell-based, Pseudomonas aeruginosa; conditions: Pseudomonas aeruginosa
Experimental: P. aeruginosa strain 762 or ATCC 27853 were grown in LB medium at 37° C. until the early logarithmic phase (OD550 0.2). Bacteria were then diluted in PBS to a concentration of 5×10^3 CFU/ml. Stock solutions of sphingolipids (5 mM in 7.5% n-Octyl-β-D-Glucopyranoside (OGP) or in DMSO were prepared by sonication. Sphingolipids were added to the bacteria (0.1-50 μM in 0.075% OGP or 1% DMSO). Bacteria were incubated with sphingolipids for 2 hr at 37° C. and a sample of 200 μl bacteria solution were plated on LB agar plates, incubated overnight at 37° C. and colonies were counted.
The direct effect of sphingosine and other sphingoid long chain bases (LCBs) on the growth of P. aeruginosa was examined in vitro. Bacteria were incubated with a variety of LCBs and the EC50 values on bacterial growth were determined (Table 1).

For CCCCCCCCCCCCC/C=C/[C@@H](O)[C@@H](N)CO (stereo in doubt) [D-erythro-Sphingosine, (2S,3R)-2-aminooctadec-4-ene-1,3-diol], the “Sytox green fluorescence of bacteria” value (P. aeruginosa) is given as “large increase in fluorescence”, the “protection from pulmonary P. aeruginosa infection” value [1] is given as “completely protected CF and CerS2 null mice from P. aeruginosa infection and even eliminated an existing infection; also recorded: rescue CF and CerS2 null mice from pulmonary P. aeruginosa infection; also recorded: prevents pulmonary P. aeruginosa infection” and the “pK (in PBS)” value [2] is given as 6.7^1,2. The EC50 (P. aeruginosa strain 762; 762, Table 3, Example 3, method of Example 2, n=3 for each analog, given as ranges, read-out: EC50) was 0.5 to 1 µM and the EC50 (P. aeruginosa strain 762; P. aeruginosa strain 762, 2 hrs at 37° C. in 0.075% OGP, colonies counted, at least 3 independent experiments, read-out: EC50 (μM) ± S.D.) was 0.5 ± 0.1 µM.
